Measurements: US20260207632A1, “C[…] THERAPY” (KINGDOM THERAPEUTICS LIMITED, priority 2022, published 2026)

Columns and labels:
rat VPA model of autism [1] = experiment: Muscle thickness in rat colonic tissue (H&E histology), VPA rat model; assay type: in vivo; details: for Average Muscle Thickness: VPA in utero
Protocol: Five animals were chosen at random from each of the agreed treatment groups. Colon tissue was collected after euthanasia, weighted, flushed using cold sterile saline, and divided into three sections. One distal sample (approx. 1 cm×1 cm) was employed for intestinal myeloperoxidase (MPO) activity as described below by Berand Ltd. This sample was weighed and stored at −80° C. until use. A second proximal colon sample (approx. 1 cm×5 cm) was prepared for histological analysis by collection using the Swiss roll technique, placed into a cassette for paraffin embedding and preservation in 10% formalin solution for 24 hours. They were then transferred into 70% ethanol solution until paraffin embedded. These samples were shipped in 70% ethanol solution to Transpharmation Ltd at trinity College Dublin, Ireland for further processing. Haematoxylin & eosin staining was performed on the tissue before imaging. Five images were taken from each animal at 1.25× magnification. Using ImageJ the thickness of the muscle layer was measured at 5 locations throughout the section. A third medial section of colon (approx. 1 cm×2.5 cm) was frozen in liquid nitrogen for the analysis of cytokine expression and was shipped at minus 80° C. to Transpharmation Ltd at Trinity College Dublin, Ireland.
Staining was performed using the Haematoxylin and Eosin kit from Vector Laboratories (Cat. No. H-3502). Sections were deparaffinized and rehydrated by washing in xylene (3×5 min), 100% ethanol (1 min), 96% ethanol (1 min) and distilled water (2 min). Each section was fully covered in haematoxylin stain and left for 5 min before being washed twice in distilled water for 15 s. […]
Sections were imaged using an Olympus BX51 microscope at a magnification of 1.25×. Images were then analysed using ImageJ software. Thickness of muscle were measured from luminal surface to muscularis mucosa and from luminal surface to external muscle layer. […]
For the histological analysis of colonic tissue, statistical analysis was performed using GraphPad Prism 9. Normality was assessed using the Shapiro-Wilk test. […]

[2] = test system: rodent in utero VPA model of autism; experiment: Behavioural changes in rodent in utero VPA model of autism (overall conclusion); assay type: in vivo, rat; details: sub-chronic treatment with CBD alone, p.o.
Protocol: In the first study, a sub-chronic 8-day dosing schedule was employed with the test compound CBD administered alone (10, 30 and 60 mg/kg, p.o. VPA/CBD; dose volume 5 ml/kg). Control animals were administered sterile saline (0.9% w/v, i.p.) in utero and the vehicle control (ethanol: Kolliphor HS-15:0.9% saline (1:1:18, v/v/v) p.o. VEH/VEH). The test compound and vehicle control were administered to the animals once daily for 7 days prior to, and once again on each day of behavioural assessment, 60 minutes prior to test which consisted of a battery of behavioural paradigms: P30 social play and bottle brush test, P31-32 open field exploratory behaviour. […] Subsequent to behavioural analysis the effect of CBD on gastrointestinal permeability was evaluated four hours following oral administration of fluorescein isothiocyanate-labelled dextran measured in plasma on postnatal day 33. […] 5 In the second study, the sub-optimal dose of CBD (30 mg/kg, p.o.) was evaluated in combination with administration of THC at increasing concentration (0.75, 1.5 and 3 mg/kg, p.o. VPA/CBD+THC). […] Behavioural and gastrointestinal readouts were examined as per study one with terminal samples collected on the final day of the experiment.
Two experimental studies carried out 1). that established the effective dose of CBD and 2). determined the additive effect of CBD in combination with THC at increasing ratios. […]

rat VPA model of autism [3] = experiment: Irritability-like behaviour: bottle-brush test (P30) in VPA rat model; assay type: in vivo; set-up: key to bottle brush irritability: +: improvement; Ø: no change
Protocol: In the first study, a sub-chronic 8-day dosing schedule was employed with the test compound CBD administered alone (10, 30 and 60 mg/kg, p.o. VPA/CBD; dose volume 5 ml/kg). Control animals were administered sterile saline (0.9% w/v, i.p.) in utero and the vehicle control (ethanol: Kolliphor HS-15:0.9% saline (1:1:18, v/v/v) p.o. VEH/VEH). The test compound and vehicle control were administered to the animals once daily for 7 days prior to, and once again on each day of behavioural assessment, 60 minutes prior to test which consisted of a battery of behavioural paradigms: P30 social play and bottle brush test, P31-32 open field exploratory behaviour. A reference positive control, the atypical antipsychotic risperidone (0.125 mg/kg, i.p., once per day for 8 days prior to and for duration of behavioural testing), was included in study one for comparison. Subsequent to behavioural analysis the effect of CBD on gastrointestinal permeability was evaluated four hours following oral administration of fluorescein isothiocyanate-labelled dextran measured in plasma on postnatal day 33. On postnatal day 34, 60 minutes post a final treatment with the test agents, animals were humanely euthanised and samples collected to evaluate inflammatory biomarkers, gastrointestinal function and histology. 5 In the second study, the sub-optimal dose of CBD (30 mg/kg, p.o.) was evaluated in combination with administration of THC at increasing concentration (0.75, 1.5 and 3 mg/kg, p.o. VPA/CBD+THC). Comparison was made to CBD administered alone at the sub-optimal and effective doses (30 and 60 mg/kg, p.o.) and to vehicle controls as per study one. Behavioural and gastrointestinal readouts were examined as per study one with terminal samples collected on the final day of the experiment.
To test irritability-like behaviour we employed the bottle-brush test modified for rats (Riittinen et al. 1986). Irritability-like behaviour was examined by measuring aggressive and defensive responses during the bottle-brush test carried out in juvenile animals immediately after play behaviour evaluation at P30. Irritability-like behaviour testing was performed under dark conditions with a red light and infrared camera recording (Kononoff et al., 2018). Testing consisted of 10 trials per rat in plastic cages (377×325×170 mm) with fresh bedding. During each trial, the rat was placed at the back of the cage. A bottle-brush was rotated toward the animal's whiskers (from the front of the cage). The brush was rotated around the whiskers of the rat for approximately 1 second. The brush was then rotated back to the front of the cage where it hung vertically for approximately 2 seconds, during which behavioural responses were recorded. An intertrial interval of 10 seconds was used, with each new trial started with the animal returned to the back of the cage. All testing was conducted in the morning, starting at 09.00 and concluded before 12.00.
Employing video analysis of the test the following were scored as aggressive responses: smelling the brush, biting the brush (during the initial phase of rotating the brush forward and back to the starting position), boxing the target, following the brush, exploring the brush (using paws or mouth to manipulate the brush without biting or boxing), mounting the brush, and delayed biting (during the 2 s that the brush hung at the starting position). The following were scored as defensive responses: escaping from the brush, digging, burying, jumping, climbing, vocalization, freezing, and grooming. Grooming and digging were additionally recorded during the 10 second intertrial intervals. Frequency and total time engaged in each behaviour and the sum of aggressive and defensive behaviours, referred to as the irritability score (Kononoff et al, 2018), were recorded.

[4] = study one, CBD 10 mg/kg, vs VPA/VEH
[5] = study one, CBD 60 mg/kg, vs VPA/VEH
[6] = study one, risperidone 0.125 mg/kg i.p.

C=C(C)[C@@H]1CCC(C)=C[C@H]1c1c(O)cc(CCCCC)cc1O [CBD, cannabidiol]
Average Muscle Thickness (rat VPA model of autism [1]; CBD 30 mg/kg): 220.4 μm
Average Muscle Thickness (rat VPA model of autism [1]; CBD 60 mg/kg): 207.2 μm
thinning of colonic muscle (rat VPA model of autism [1]; VPA rats, treatment with CBD (30, 60 mg/kg)): attenuated
minimum effective dose [2]: 60 mg/kg
bottle brush irritability (rat VPA model of autism [3]; cohort one, CBD 10 mg/kg p.o.): Ø
bottle brush irritability (rat VPA model of autism [3]; cohort one, CBD 30 mg/kg p.o.): +
bottle brush irritability (rat VPA model of autism [3]; cohort one, CBD 60 mg/kg p.o.): +
bottle brush irritability (rat VPA model of autism [3]; cohort two, CBD 30 mg/kg, THC 0 mg/kg p.o.): Ø
bottle brush irritability (rat VPA model of autism [3]; cohort two, CBD 60 mg/kg, THC 0 mg/kg p.o.): +
increase in aggressive responses, bottle brush (rat VPA model of autism [3]; [4]): significantly reduced
irritability score (combined aggressive and defensive behaviours) (rat VPA model of autism [3]; [4]): significantly reduced
irritability score (combined aggressive and defensive behaviours) (rat VPA model of autism [3]; study one, CBD 30 mg/kg, vs VPA/VEH): significantly reduced
increase in aggressive responses, bottle brush (rat VPA model of autism [3]; [5]): significantly reduced
irritability score (combined aggressive and defensive behaviours) (rat VPA model of autism [3]; [5]): significantly reduced
increase in aggressive responses, bottle brush (rat VPA model of autism [3]; study two, CBD 30 mg/kg): without effect
irritability score (combined aggressive and defensive behaviours) (rat VPA model of autism [3]; study two, CBD 30 mg/kg): without effect
increase in aggressive responses, bottle brush (rat VPA model of autism [3]; study two, CBD 60 mg/kg): significantly reduced
irritability score (combined aggressive and defensive behaviours) (rat VPA model of autism [3]; study two, CBD 60 mg/kg): significantly reduced

Cc1nc2n(c(=O)c1CCN1CCC(c3noc4cc(F)ccc34)CC1)CCCC2 [Risperidone, risperidone]
bottle brush irritability (rat VPA model of autism [3]; cohort one, risperidone 0.125 mg/kg i.p.): +
increase in aggressive responses, bottle brush (rat VPA model of autism [3]; [6]): significantly reduced
irritability score (combined aggressive and defensive behaviours) (rat VPA model of autism [3]; [6]): significantly reduced
